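Five concentrations, 48 hours, 96-well plates. TGI: concentration producing complete growth inhibition.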
Legend:
Assay in all cases: NCI tumour cell line growth inhibition, 48 h
DU-145 prostate = test system: DU-145 prostate
SK-MEL-5 melanoma = test system: SK-MEL-5 melanoma
UACC-257 melanoma = test system: UACC-257 melanoma
A498 renal = test system: A498 renal
SF-268 CNS = test system: SF-268 CNS
CCRF-CEM leukemia = test system: CCRF-CEM leukemia
MDA-MB-435 = test system: MDA-MB-435
MDA-N = test system: MDA-N
SF-539 CNS = test system: SF-539 CNS
SK-OV-3 ovarian = test system: SK-OV-3 ovarian
OVCAR-5 ovarian = test system: OVCAR-5 ovarian
MCF7 breast = test system: MCF7 breast
A549 NSCLC = test system: A549 NSCLC
MDA-MB-231 breast = test system: MDA-MB-231 breast
MOLT-4 leukemia = test system: MOLT-4 leukemia
RPMI-8226 leukemia = test system: RPMI-8226 leukemia
CAKI-1 renal = test system: CAKI-1 renal
HCT-15 colon = test system: HCT-15 colon
UACC-62 melanoma = test system: UACC-62 melanoma
RXF 393 renal = test system: RXF 393 renal
HCC-2998 colon = test system: HCC-2998 colon
COLO 205 colon = test system: COLO 205 colon
HOP-92 NSCLC = test system: HOP-92 NSCLC
M14 melanoma = test system: M14 melanoma
SW-620 colon = test system: SW-620 colon
SNB-75 CNS = test system: SNB-75 CNS
NCI-H522 lung = test system: NCI-H522 lung
TK-10 renal = test system: TK-10 renal
HL-60(TB) leukemia = test system: HL-60(TB) leukemia
OVCAR-3 ovarian = test system: OVCAR-3 ovarian
ACHN renal = test system: ACHN renal
HT29 colon = test system: HT29 colon
KM12 colon = test system: KM12 colon
SK-MEL-2 melanoma = test system: SK-MEL-2 melanoma
OVCAR-4 ovarian = test system: OVCAR-4 ovarian
HCT-116 colon = test system: HCT-116 colon
SR leukemia = test system: SR leukemia
UO-31 renal = test system: UO-31 renal
PC-3 prostate = test system: PC-3 prostate
SF-295 CNS = test system: SF-295 CNS
EKVX NSCLC = test system: EKVX NSCLC
MALME-3M melanoma = test system: MALME-3M melanoma
HOP-62 NSCLC = test system: HOP-62 NSCLC
SK-MEL-28 melanoma = test system: SK-MEL-28 melanoma
U251 CNS = test system: U251 CNS
NCI-H460 lung = test system: NCI-H460 lung
NCI-H226 lung = test system: NCI-H226 lung
OVCAR-8 ovarian = test system: OVCAR-8 ovarian
LOX IMVI melanoma = test system: LOX IMVI melanoma
SN12C renal = test system: SN12C renal
IGROV1 ovarian = test system: IGROV1 ovarian
T-47D breast = test system: T-47D breast
786-0 renal = test system: 786-0 renal
NCI-H23 lung = test system: NCI-H23 lung
K-562 leukemia = test system: K-562 leukemia
HS 578T breast = test system: HS 578T breast
NCI/ADR-RES ovarian = test system: NCI/ADR-RES ovarian
SNB-19 CNS = test system: SNB-19 CNS
BT-549 breast = test system: BT-549 breast

NC(=O)ON=C1CCN(Cc2ccccc2)CC1
TGI (DU-145 prostate): > 100 µM
TGI (SK-MEL-5 melanoma): > 100 µM
TGI (UACC-257 melanoma): > 100 µM
TGI (A498 renal): > 100 µM
TGI (SF-268 CNS): > 100 µM
TGI (CCRF-CEM leukemia): > 100 µM
TGI (MDA-MB-435): > 100 µM
TGI (MDA-N): > 100 µM
TGI (SF-539 CNS): > 100 µM
TGI (SK-OV-3 ovarian): > 100 µM
TGI (OVCAR-5 ovarian): > 100 µM
TGI (MCF7 breast): > 100 µM
TGI (A549 NSCLC): > 100 µM
TGI (MDA-MB-231 breast): > 100 µM
TGI (MOLT-4 leukemia): > 100 µM
TGI (RPMI-8226 leukemia): > 100 µM
TGI (CAKI-1 renal): > 100 µM
TGI (HCT-15 colon): > 100 µM
TGI (UACC-62 melanoma): > 100 µM
TGI (RXF 393 renal): > 100 µM
TGI (HCC-2998 colon): > 100 µM
TGI (COLO 205 colon): > 100 µM
TGI (HOP-92 NSCLC): > 100 µM
TGI (M14 melanoma): > 100 µM
TGI (SW-620 colon): > 100 µM
TGI (SNB-75 CNS): > 100 µM
TGI (NCI-H522 lung): > 100 µM
TGI (TK-10 renal): > 100 µM
TGI (HL-60(TB) leukemia): > 100 µM
TGI (OVCAR-3 ovarian): > 100 µM
TGI (ACHN renal): > 100 µM
TGI (HT29 colon): > 100 µM
TGI (KM12 colon): > 100 µM
TGI (SK-MEL-2 melanoma): > 100 µM
TGI (OVCAR-4 ovarian): > 100 µM
TGI (HCT-116 colon): > 100 µM
TGI (SR leukemia): > 100 µM
TGI (UO-31 renal): > 100 µM
TGI (PC-3 prostate): > 100 µM
TGI (SF-295 CNS): > 100 µM
TGI (EKVX NSCLC): > 100 µM
TGI (MALME-3M melanoma): > 100 µM
TGI (HOP-62 NSCLC): > 100 µM
TGI (SK-MEL-28 melanoma): > 100 µM
TGI (U251 CNS): > 100 µM
TGI (NCI-H460 lung): > 100 µM
TGI (NCI-H226 lung): > 100 µM
TGI (OVCAR-8 ovarian): > 100 µM
TGI (LOX IMVI melanoma): > 100 µM
TGI (SN12C renal): > 100 µM
TGI (IGROV1 ovarian): > 100 µM
TGI (T-47D breast): > 100 µM
TGI (786-0 renal): > 100 µM
TGI (NCI-H23 lung): > 100 µM
TGI (K-562 leukemia): > 100 µM
TGI (HS 578T breast): > 100 µM
TGI (NCI/ADR-RES ovarian): > 100 µM
TGI (SNB-19 CNS): > 100 µM

COC(=O)c1c(O)ccc2c1c1c(n2Cc2ccccn2)C(=O)c2ccccc2C1
TGI (DU-145 prostate): > 100 µM
TGI (SK-MEL-5 melanoma): > 100 µM
TGI (UACC-257 melanoma): > 100 µM
TGI (A498 renal): > 100 µM
TGI (SF-268 CNS): > 100 µM
TGI (CCRF-CEM leukemia): > 100 µM
TGI (MDA-MB-435): > 100 µM
TGI (MDA-N): > 100 µM
TGI (SF-539 CNS): > 100 µM
TGI (SK-OV-3 ovarian): > 100 µM
TGI (OVCAR-5 ovarian): > 100 µM
TGI (MCF7 breast): > 100 µM
TGI (A549 NSCLC): > 100 µM
TGI (MDA-MB-231 breast): > 100 µM
TGI (MOLT-4 leukemia): > 100 µM
TGI (RPMI-8226 leukemia): 59.9 µM
TGI (CAKI-1 renal): > 100 µM
TGI (HCT-15 colon): > 100 µM
TGI (UACC-62 melanoma): > 100 µM
TGI (RXF 393 renal): > 100 µM
TGI (BT-549 breast): > 100 µM
TGI (COLO 205 colon): 28.5 µM
TGI (M14 melanoma): > 100 µM
TGI (SW-620 colon): > 100 µM
TGI (SNB-75 CNS): > 100 µM
TGI (TK-10 renal): > 100 µM
TGI (HL-60(TB) leukemia): > 100 µM
TGI (OVCAR-3 ovarian): > 100 µM
TGI (HT29 colon): > 100 µM
TGI (KM12 colon): > 100 µM
TGI (SK-MEL-2 melanoma): > 100 µM
TGI (OVCAR-4 ovarian): > 100 µM
TGI (HCT-116 colon): > 100 µM
TGI (SR leukemia): > 100 µM
TGI (UO-31 renal): > 100 µM
TGI (PC-3 prostate): 90.2 µM
TGI (SF-295 CNS): > 100 µM
TGI (MALME-3M melanoma): > 100 µM
TGI (HOP-62 NSCLC): > 100 µM
TGI (SK-MEL-28 melanoma): > 100 µM
TGI (U251 CNS): > 100 µM
TGI (NCI-H460 lung): > 100 µM
TGI (NCI-H226 lung): > 100 µM
TGI (OVCAR-8 ovarian): > 100 µM
TGI (LOX IMVI melanoma): > 100 µM
TGI (SN12C renal): > 100 µM
TGI (IGROV1 ovarian): > 100 µM
TGI (786-0 renal): > 100 µM
TGI (NCI-H23 lung): > 100 µM
TGI (K-562 leukemia): > 100 µM
TGI (HS 578T breast): > 100 µM
TGI (NCI/ADR-RES ovarian): > 100 µM
TGI (SNB-19 CNS): > 100 µM

Source: PubChem BioAssay (NCI)
